# Changes are numbered by the printed parent chain.
# Key:
# senescent HDF [1] = assay: Mitochondrial ROS by MitoSOX flow cytometry; type: cell-based, human; conditions: versus senescent HDF
# Experimental: (§1) FIG. 5 depicts the result of recovery of mitochondria based on the increased production of ATP. (A and B) Flow cytometric analysis of mitochondrial ROS and mitochondrial mass analysis using Mito tracker Green and MitoSOX; (C and D) measurement of non-glycotic glycolysis level and glycotic glycolysis level; (E) flow cytometry analysis of autophagosome level using CYTO-ID Green assay.
# (§2) For quantification of mitochondrial ROS, the cells were incubated in medium containing 5 μM MitoSOX (M36008; Life Technologies, Carlsbad, CA, USA) for 30 min at 37° C. For quantification of mitochondrial mass, the cells were incubated in medium containing 50 nM MitoTracker green (M22426; Life Technologies) for 30 min at 37° C. After staining, for the purpose of measuring mitochondrial membrane potential, cells were prepared for FACS analysis.
# Reactive oxygen species (ROS) was identified and measured, which damages homeostasis and metabolism of normal mitochondria.
# senescent HDF [2] = assay: Measurement of cellular ATP levels (oxphos and glycolysis portion); type: cell-based, human; conditions: versus senescent HDF
# Experimental: Cells were incubated in medium with or without 20 μM oligomycin for 24 h and then lysed with lysis buffer. ATP content was measured using a ViaLight Plus Kit (LT07-221; Lonza, Basel, Switzerland) according to the manufacturer's instructions. DNA content was measured using AccuBlue broad range dsDNA quantitation kit (31007; Biotium, Fremont, CA, USA). For measurements of relative ATP content, the luminescence of each sample was normalized to the DNA content.
# The inventors studied the changes in ATP production when assembling the ATP subunit based on the result of FIG. 4B. Oxphos portion was measured for identifying ATP resulting from oxidative phosphorylation in mitochondria cristae (FIG. 4C).
# Moreover, glycolysis portion was measured for assessing the amount of ATP during glycolysis (FIG. 4D).
# [3] = molecular target: T1, Myc-14-3-3 zeta/delta(WT) / ATP synthase alpha and beta (Homo sapiens, UniProt P63104); assay: Co-immunoprecipitation of ATP synthase alpha and beta with Myc-14-3-3 zeta/delta(WT); type: cell-based; conditions: HEK293T, 4 μM
# T1 construct: expressed in transfected cells; host or cells: HEK293T (CRL-11268; ATCC)
# T1 sequence (P63104 1-245): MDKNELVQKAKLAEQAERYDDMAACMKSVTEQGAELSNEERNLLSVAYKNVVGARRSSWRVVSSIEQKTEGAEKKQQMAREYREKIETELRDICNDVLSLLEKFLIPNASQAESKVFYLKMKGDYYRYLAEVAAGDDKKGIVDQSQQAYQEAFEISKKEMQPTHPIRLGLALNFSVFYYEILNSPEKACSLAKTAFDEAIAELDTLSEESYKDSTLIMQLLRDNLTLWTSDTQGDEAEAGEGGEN
# Experimental: (§3) pCMV-Myc-14-3-3 zeta/delta(WT) plasmid and pCMV-Myc-14-3-3 zeta/delta(S58A) plasmid were transfected with HEK293T(CRL-11268; ATCC). […] The treated cells were digested with 0.1% NP-40 cell lysis buffer to destroy cells, and IP (immunoprecipitation) of MIC60 subunit was performed using AccuNanoBeadm Streptavidin Magnetic Nanobeads (TA-1015-1; Bioneer, Daejeon, Korea). IP of 14-3-3 zeta/delta(WT) and 14-3-3 zeta/delta(S58A) were performed using anti-Myc tag antibody.
# (§4) The PCR fragment of 14-3-3 zeta/delta (WT) and 14-3-3 zeta/delta (S58A) were separately cloned into pCMV-Myc-puromycin. HEK293T (CRL-11268; ATCC) were transfected with Lipofectaminem 2000 Transfection Reagent (11668-019; Thermo Scientific), Selection was carried out with puromycin 3 μg/ml.
# (§5) Therefore, the 58th serine region of 14-3-3 zeta/delta was mutated to alanine to investigate its function. Myc-tag 14-3-3 zeta/delta(WT) vector and 14-3-3 zeta/delta(S58A) vector were transfected and overexpressed with HEK293T. Additionally, their interactions with endogenous ATP synthase alpha and beta were confirmed by IP (FIG. 4B).
# (§6) As a result, ATP synthase alpha and beta proteins, which interacted with Myc-14-3-3 zeta/delta(WT) were increased KB1541 was treated to HEK293T at a concentration of 4 μM (FIG. 5B).
# senescent HDF [4] = assay: Seahorse analysis, ECAR (dependency of glycolysis); type: cell-based, human; conditions: HDF treated with compound, regardless of glucose
# Text: as §1
# The XFe24 flux analyzer (Seahorse Bioscience XFe24 Instrument) was used according to the manufacturer's protocol. Briefly, 5×10^4 cells were distributed into each well of an XFe24 cell-culture plate from the XF24 FluxPak (100850-001; Seahorse Bioscience, North Billerica, MA, USA) and then cultured in a 5% CO2 incubator at a temperature of 37° C. for 16 h. Next, the medium was replaced by XF Assay medium (102365-100; Seahorse Bioscience), which lacked glucose, and the cells were then cultured for another 1 h in the same incubator. The extracellular acidification rate (ECAR) was measured using an XF Glycolysis Stress Test kit (102194-100; Seahorse Bioscience). ECAR was reported in mpH/min. As a metabolic shifter, aconitase inhibitor deferiprone (379409-5G; Sigma-Aldrich) was used.
# Lastly, dependency of glycolysis was measured via ECAR.
# Dependency of glycolysis in HDF treated with KB1541 decreased regardless of glucose like ATP study (FIGS. 5D and E).
# senescent HDF [5] = assay: Mitochondrial mass by MitoTracker green flow cytometry; type: cell-based, human; conditions: HDF treated with compound
# Experimental: as §1, §2
# (§7) The capability of removing organelles having dysfunction in senescent cells is deteriorated. Recovery of autophagy prevents accumulation of dysfunctional mitochondria and resulting in signs of senescence recovery. Mitochondrial mass and autophagy were measured for identifying the function. Mitochondrial mass decreased in HDF treated with KB1541(FIG. 5B). Moreover, autophagy level increased in HDF treated with KB1541(FIG. 5C).
# senescent HDF cells = assay: Compound screening: cell proliferation of senescent fibroblasts (GelGreen fluorescence); type: cell-based, human; conditions: 27 drugs at 4 μM, 12 days, senescent HDF 1,000 cells per well
# Experimental: FIG. 1 depicts the results of potential target screening for recovering senescence. Each of compounds was treated to a 96 well plate seeded with 1000 senescent cells (4 μM). After incubation for 12 days, the cells were stained with Gel green solution (1:1,000 in D.W.). Cell number was determined via fluorescence measurement using fluorescence microplate reader (excitation/emission 485 nm/535 nm).
# Senescent fibroblasts were grown in 96-well plates at a density of 1,000 cells per well. Components from the library were diluted to a final concentration of 4 μM and added to the wells every 4 days. 12 days after drug treatment, cells were washed twice with phosphate-buffered saline (PBS) and lysed in 50 μl of 0.2% SDS. The plates were incubated at 37° C. for 1 h. GelGreen® Nucleic Acid Gel Stain (150 μl) (1:1,000 in DW; 41005; Biotium, Fremont, CA, USA) was added to the wells. Cell number was determined by measuring fluorescence intensity with VICTOR Multilabel Plate Reader (2030-0050; PerkinElmer, Waltham, MA, USA). The mean and standard deviation from six replicates were determined for each of experimental groups.
# Cellular senescence is characterized by cell cycle arrest, and the inventors identified a compound recovering cell cycle arrest with additional anti-senescence effects. […] Relative cell proliferation was measured in terms of the senescent HDF. […]
# [6] = test system: senescent HDF mitochondria; assay: Transmission electron microscopy of mitochondrial cristae; type: cell-based, human
# Text: FIG. 6 depicts the result of mitochondria recovery induced by KB1541. (A) HDF mitochondria observed in transmission electron microscope 21 days after treated with KB1541. From left: Senescent (DMSO), Senescent (KB1541); (B) the length of cristae observed in transmission electron microscope.
# The inventors studied level to cristae of mitochondria 12 days after senescent HDF treatment and identified senescence recovery. […] In graph where the images were quantified and represented, the length of cristae increased when treated with KB1541(FIG. 6B).
# senescent HDF [7] = assay: Autophagy level (Cyto-ID flow cytometry); type: cell-based, human; conditions: HDF treated with compound
# Experimental: as §1
# Cells were incubated in medium containing 20 μM chloroquine (CQ; C6628, Sigma-Aldrich). At 24 h after incubation, cells were further stained with Cyto-ID staining solution and 50 nM LTDR (ENZ-51031-0050; ENZO, Lausen, Switzeland) for 30 min and prepared for FACS analysis. To measure background autofluorescence, cells were incubated in medium without dye. Fluorescence from Cyto-ID was normalized with fluorescence from LTDR. Autophagic flux was calculated using the following equation: ΔMFI Cyto-ID=MFI Cyto-ID (+CQ)/MFI Cyto-ID (−CQ).
# as §7
# [8] = molecular target: T2, Myc-14-3-3 zeta/delta (S58A) / ATP synthase alpha and beta (Homo sapiens, UniProt P63104, S58A); assay: Co-immunoprecipitation of ATP synthase alpha and beta with Myc-14-3-3 zeta/delta(S58A); type: cell-based; conditions: HEK293T, performed in the same way (4 μM)
# T2 construct: expressed in transfected cells; host or cells: HEK293T (CRL-11268; ATCC)
# T2 sequence (P63104 1-245 S58A): T1 sequence (P63104 1-245) with S58A
# Experimental: as §3, §4, §5, §6
compound,measurement,setting,value
FC(F)(F)c1ccc(-c2nc3c(N4CCCC4)nc4ccccc4c3o2)cc1 [KB1541],Reactive oxygen species (mitochondrial ROS),senescent HDF [1],decreased in half
same,Glycolysis portion of ATP production,senescent HDF [2],reduced compared to senescent HDF
same,Oxphos portion of ATP production,senescent HDF [2],higher than senescent HDF
same,ATP synthase alpha and beta proteins interacting with Myc-14-3-3 zeta/delta(WT),[3],increased
same,Dependency of glycolysis (ECAR),senescent HDF [4],decreased
same,Mitochondrial mass,senescent HDF [5],decreased
same,"Relative cell proliferation, rank among screened compounds",senescent HDF cells,most effective compound on cell proliferation
same,Folds (cristae) of mitochondria in electron microscope images,[6]; 12 days after treatment,restored as well as increased
same,Length of cristae,[6]; quantified TEM images,increased
same,Autophagy level,senescent HDF [7],increased
same,ATP synthase alpha and beta proteins interacting with Myc-14-3-3 zeta/delta (S58A),[8],did not change significantly
